Reference: patent US11873291B2, “Quinoline cGAS antagonist compounds” (ImmuneSensor Therapeutics, Inc., priority 2020, dated 2024)

Assays:
[1] = test system: cGAS activity in Reporter THP1 cell line; test: Cellular assay to measure cGAS activity: ISRE-Gaussia luciferase reporter THP1 cells transfected with ISD; format: cell-based; details: Homo sapiens
Experimental: Cellular assay to measure cGAS activity: Reporter THP1 cell line harboring a gene encoding Gaussia Luciferase under the control of 5 tandem repeats of interferon-stimulated response elements (ISRE) fused to an ISG54 minimal promoter was used to test inhibition of cGAS activity by synthetic compounds in human cells. These cells were plated on 96-well plates at 0.3×10^6/well and incubated with serial dilutions of compounds or DMSO for 5 min, followed by transfection of 2 μg/mL of ISD (Interferon Stimulatory DNA, a 45 bp DNA oligo) or mock transfected using lipofectamine 2000 (Life Technology) method, according to manufacturer's instructions. 16 hours later, 15 μL of the media from each well was transferred to a new plate, 50 μL of solution containing 50 mM Hepes-NaOH, pH 6.5, 50 mM NaCl, 10 mM EDTA, 1 μM of coelenterazine was added to each well and luminescence was measured immediately. Fold increase in luminescence compared to mock transfection was plotted against concentrations of each compound, and IC50 is calculated using Graphpad. To evaluate the specificity of a compound, the same procedure was performed except that cells were transfected with 2 μg/mL poly(I:C) or infected with Sendai Virus (SeV) at 50 Unit/mL, which are known to activate the RIG-I-MAVS pathway. A specific inhibitory compound should inhibit interferon induction by DNA but have minimal effect on poly(I:C) or Sendai virus induced interferon reporter gene expression.
The letter codes for cGAS IC50 include: A (<2 μM); B (2-10 μM); C (>10 μM).

[2] = molecular target: T1, recombinant human cGAS (aa147-522) (Homo sapiens, UniProt Q8N884); test: In vitro inhibition assay of cGAS activity (ATP consumption, KinaseGlo Max); format: biochemical; details: Table 3, read-out: cGAS Inhibition Results IC50
T1 construct: recombinant human cGAS (aa147-522); His6-SUMO (cleaved yes); made in house; host or cells: E. coli BL21/pLys
Procedure, shortened: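 De-tagged recombinant human cGAS (aa147-522, 1.5 μg/mL) was incubated 20 min at 37 °C with herring testis DNA, 6.6 μM ATP and 0.1 mM GTP in Tris pH 7.5/MgCl2 buffer plus serial compound dilutions. Remaining ATP was read by KinaseGlo Max luminescence, and IC50 was fitted from % ATP consumption versus log concentration.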

[3] = THP-1, Table 4, Gaussia luciferase
[4] = THP-1, untitled table after Table 4 (continuation)

T1 sequence (Q8N884 147-522): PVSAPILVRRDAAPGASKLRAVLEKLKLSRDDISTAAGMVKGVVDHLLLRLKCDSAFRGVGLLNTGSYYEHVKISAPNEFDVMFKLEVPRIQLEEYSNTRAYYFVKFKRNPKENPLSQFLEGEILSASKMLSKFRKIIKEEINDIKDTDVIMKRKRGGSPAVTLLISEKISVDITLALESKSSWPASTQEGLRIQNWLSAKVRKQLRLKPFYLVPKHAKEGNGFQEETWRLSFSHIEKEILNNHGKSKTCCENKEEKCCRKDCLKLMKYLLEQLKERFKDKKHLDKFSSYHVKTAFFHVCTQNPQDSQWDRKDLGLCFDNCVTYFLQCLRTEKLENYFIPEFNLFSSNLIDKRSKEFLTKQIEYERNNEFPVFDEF

IC50 [1, 3] [nM] | IC50 [2] [nM] | IC50 [1, 4] [nM] | SMILES
< 2000 | < 2000 | – | O=C(O)CCOC[C@@H]1C[C@H](F)CN1c1cc(-n2ccnc2)c2ccc(Cl)c(Cl)c2n1 [I-705]
< 2000 | < 2000 | – | O=C(O)COC[C@@H]1C[C@H](F)CN1c1cc(-n2ccnc2)c2ccc(Cl)c(Cl)c2n1 [I-706]
2000 to 10000 | < 2000 | – | O=C(O)CCOC[C@@H]1[C@H]2C[C@H]2CN1c1cc(-n2ccnc2)c2ccc(Cl)c(Cl)c2n1 [I-710]
< 2000 | < 2000 | – | CO[C@@H]1C[C@@H](COCCC(=O)O)N(c2cc(-n3ccnc3)c3ccc(Cl)c(Cl)c3n2)C1 [I-711]
> 10000 | < 2000 | – | O=C(O)COCC[C@@H]1CC[C@@H](C(=O)O)N1c1cc(-n2ccnc2)c2ccc(Cl)c(Cl)c2n1 [I-715, (2S,5S)-5-(2-(carboxymethoxy)ethyl)-1-(7,8-dichloro-4-(1H-imidazol-1-yl)quinolin-2-yl)pyrrolidine-2-carboxylic acid]
< 2000 | < 2000 | – | CC(CC(=O)O)OC[C@@H]1CCCN1c1cc(-n2ccnc2)c2ccc(Cl)c(Cl)c2n1 (some centres unmarked) [I-717]
< 2000 | < 2000 | – | CC(COC[C@@H]1CCCN1c1cc(-n2ccnc2)c2ccc(Cl)c(Cl)c2n1)C(=O)O (some centres unmarked) [I-719]
< 2000 | 2000 to 30000 | – | COC(=O)C(C)COC[C@@H]1CCCN1c1cc(-n2ccnc2)c2ccc(Cl)c(Cl)c2n1 (some centres unmarked) [I-720]
2000 to 10000 | < 2000 | – | O=C(O)C1CC(OC[C@@H]2CCCN2c2cc(-n3ccnc3)c3ccc(Cl)c(Cl)c3n2)C1 (some centres unmarked) [I-723]
2000 to 10000 | < 2000 | – | O=C(O)CCOC[C@H](O)[C@@H]1CCCN1c1cc(-n2ccnc2)c2ccc(Cl)c(Cl)c2n1 [I-724, 3-((R)-2-((S)-1-(7,8-dichloro-4-(1H-imidazol-1-yl)quinolin-2-yl)pyrrolidin-2-yl)-2-hydroxyethoxy)propanoic acid]
> 10000 | < 2000 | – | O=C(O)COC[C@H](O)[C@@H]1CCCN1c1cc(-n2ccnc2)c2ccc(Cl)c(Cl)c2n1 [I-726, 2-((R)-2-((S)-1-(7,8-dichloro-4-(1H-imidazol-1-yl)quinolin-2-yl)pyrrolidin-2-yl)-2-hydroxyethoxy)acetic acid]
2000 to 10000 | < 2000 | – | O=C(O)c1cnn(C[C@@H]2CCCN2c2cc(-n3ccnc3)c3ccc(Cl)c(Cl)c3n2)c1 [I-728]
2000 to 10000 | < 2000 | – | O=C(O)c1cnn(CC[C@@H]2CCCN2c2cc(-n3ccnc3)c3ccc(Cl)c(Cl)c3n2)c1 [I-730]
< 2000 | < 2000 | – | O=C(O)c1ccn(C[C@@H]2CCCN2c2cc(-n3ccnc3)c3ccc(Cl)c(Cl)c3n2)c1 [I-732]
< 2000 | < 2000 | – | O=C(O)c1ccccc1OC[C@@H]1CCCN1c1cc(-n2ccnc2)c2ccc(Cl)c(Cl)c2n1 [I-733]
2000 to 10000 | < 2000 | – | O=C(O)c1cccc(OC[C@@H]2CCCN2c2cc(-n3ccnc3)c3ccc(Cl)c(Cl)c3n2)c1 [I-735, (S)-3-((1-(7,8-dichloro-4-(1H-imidazol-1-yl)quinolin-2-yl)pyrrolidin-2-yl)methoxy)benzoic acid]
2000 to 10000 | < 2000 | – | O=C(O)CCOC[C@@H]1CN(c2cc(-c3cn[nH]c3)c3ccc(Cl)c(Cl)c3n2)CCO1 [I-741]
< 2000 | < 2000 | – | O=C(O)COC[C@H]1CCCN(c2cc(-n3ccnc3)c3ccc(Cl)c(Cl)c3n2)C1 [I-743]
< 2000 | < 2000 | – | O=C(O)COC[C@@H]1CCCN(c2cc(-n3ccnc3)c3ccc(Cl)c(Cl)c3n2)C1 [I-744]
< 2000 | < 2000 | – | O=C(O)CCOC[C@H]1CCCN(c2cc(-n3ccnc3)c3ccc(Cl)c(Cl)c3n2)C1 [I-745]
< 2000 | < 2000 | – | O=C(O)CCOC[C@@H]1CCCN(c2cc(-c3cn[nH]c3)c3ccc(Cl)c(Cl)c3n2)C1 [I-747]
> 10000 | < 2000 | – | O=C(O)CCOCC1CC(O)CN(c2cc(-n3ccnc3)c3ccc(Cl)c(Cl)c3n2)C1 (centres unmarked) [I-748]
< 2000 | < 2000 | – | O=C(O)CCOCC1CC(F)CN(c2cc(-n3ccnc3)c3ccc(Cl)c(Cl)c3n2)C1 (centres unmarked) [I-749]
> 10000 | > 30000 | – | COC(=O)CCNC[C@@H]1CCCN1c1cc(-n2ccnc2)c2ccc(Cl)c(Cl)c2n1 [I-753, methyl (S)-3-(((1-(7,8-dichloro-4-(1H-imidazol-1-yl)quinolin-2-yl)pyrrolidin-2-yl)methyl)amino)propanoate]
– | 2000 to 30000 | > 10000 | O=C(O)CCNC[C@@H]1CCCN1c1cc(-n2ccnc2)c2ccc(Cl)c(Cl)c2n1 [I-756, (5)-3-(((1-(7,8-dichloro-4-(1H-imidazol-1-yl)quinolin-2-yl)pyrrolidin-2-yl)methyl)amino)propanoic acid]

More lines, now with the values behind:

SMILES | IC50 [1, 3] [nM] | IC50 [2] [nM] | IC50 [1, 4] [nM]
COC(=O)CCOC[C@@H]1[C@@H](O)CCN1c1cc(-n2ccnc2)c2ccc(Cl)c(Cl)c2n1 [I-701] | 2000 to 10000 | < 2000 | –
O=C(O)CCOC[C@@H]1C[C@H](O)CN1c1cc(-n2ccnc2)c2ccc(Cl)c(Cl)c2n1 [I-702] | 2000 to 10000 | < 2000 | –
O=C(O)CCOC[C@@H]1C[C@@H]2C[C@@H]2N1c1cc(-n2ccnc2)c2ccc(Cl)c(Cl)c2n1 [I-707] | < 2000 | < 2000 | –
C[C@H]1C[C@@H](COCCC(=O)O)N(c2cc(-n3ccnc3)c3ccc(Cl)c(Cl)c3n2)C1 [I-708] | < 2000 | < 2000 | –
O=C(O)CCOC[C@@H]1CC2(CC2)CN1c1cc(-n2ccnc2)c2ccc(Cl)c(Cl)c2n1 [I-709] | < 2000 | < 2000 | –
O=C(O)CCOC[C@@H]1C[C@@H](OCc2ccccc2)CN1c1cc(-n2ccnc2)c2ccc(Cl)c(Cl)c2n1 [I-712] | < 2000 | < 2000 | –
O=C(O)CCOC[C@@H]1C[C@H](Oc2ccccc2)CN1c1cc(-n2ccnc2)c2ccc(Cl)c(Cl)c2n1 [I-713] | < 2000 | < 2000 | –
O=C(O)CCOCC[C@@H]1CC[C@@H](C(=O)O)N1c1cc(-n2ccnc2)c2ccc(Cl)c(Cl)c2n1 [I-714, (2S,5S)-5-(2-(2-carboxyethoxy)ethyl)-1-(7,8-dichloro-4-(1H-imidazol-1-yl)quinolin-2-yl)pyrrolidine-2-carboxylic acid] | 2000 to 10000 | < 2000 | –
O=C(O)C(F)COC[C@@H]1CCCN1c1cc(-n2ccnc2)c2ccc(Cl)c(Cl)c2n1 (stereo partly drawn) [I-716, 3-(((S)-1-(7,8-dichloro-4-(1H-imidazol-1-yl)quinolin-2-yl)pyrrolidin-2-yl)methoxy)-2-fluoropropanoic acid] | > 10000 | < 2000 | –
COC(=O)CC(C)OC[C@@H]1CCCN1c1cc(-n2ccnc2)c2ccc(Cl)c(Cl)c2n1 (some centres unmarked) [I-718] | < 2000 | 2000 to 30000 | –
O=C(O)CCO[C@@H]([C@@H]1CCCN1c1cc(-n2ccnc2)c2ccc(Cl)c(Cl)c2n1)C(F)(F)F [I-722] | 2000 to 10000 | < 2000 | –
O=C(O)COC[C@@H](O)[C@@H]1CCCN1c1cc(-n2ccnc2)c2ccc(Cl)c(Cl)c2n1 [I-725, 2-((S)-2-((S)-1-(7,8-dichloro-4-(1H-imidazol-1-yl)quinolin-2-yl)pyrrolidin-2-yl)-2-hydroxyethoxy)acetic acid] | > 10000 | < 2000 | –
O=C(O)Cc1ccccc1OC[C@@H]1CCCN1c1cc(-n2ccnc2)c2ccc(Cl)c(Cl)c2n1 [I-734] | < 2000 | < 2000 | –
O=C(O)Cc1cccc(OC[C@@H]2CCCN2c2cc(-n3ccnc3)c3ccc(Cl)c(Cl)c3n2)c1 [I-736] | < 2000 | < 2000 | –
O=C(O)CCCC1CCCN(c2cc(-n3ccnc3)c3ccc(Cl)c(Cl)c3n2)C1 (centres unmarked) [I-739] | < 2000 | < 2000 | –
O=C(O)COC[C@@H]1CN(c2cc(-c3cn[nH]c3)c3ccc(Cl)c(Cl)c3n2)CCO1 [I-740] | > 10000 | < 2000 | –
O=C(O)COC[C@@H]1CN(c2cc(-n3ccnc3)c3ccc(Cl)c(Cl)c3n2)CCO1 [I-742] | > 10000 | < 2000 | –
O=C(O)CCOC[C@@H]1CCCN(c2cc(-n3ccnc3)c3ccc(Cl)c(Cl)c3n2)C1 [I-750] | < 2000 | < 2000 | –
COC(=O)COC[C@@H]1CN(c2cc(-c3cn[nH]c3)c3ccc(Cl)c(Cl)c3n2)CCO1 [I-751] | 2000 to 10000 | < 2000 | –
COC(=O)CCOC[C@@H]1CN(c2cc(-c3cn[nH]c3)c3ccc(Cl)c(Cl)c3n2)CCO1 [I-752] | > 10000 | < 2000 | –
COC(=O)CCN(C)C[C@@H]1CCCN1c1cc(-n2ccnc2)c2ccc(Cl)c(Cl)c2n1 [I-755, methyl (S)-3-(((1-(7,8-dichloro-4-(1H-imidazol-1-yl)quinolin-2-yl)pyrrolidin-2-yl)methyl)(methyl)amino)propanoate] | – | > 30000 | > 10000
